ChEMBL document CHEMBL1201862, “PubChem BioAssay data set” (2004)
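Assay format: 96-well plates, 48-hour exposure. Abbreviation: GI50, concentration required for 50% inhibition of growth.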 Activity calls are given as the source filed them. Cut-off read from the data, not from the text of the source: active = GI50 up to about 1.1 µM and inactive = higher.

Assays:
Assay in all cases: NCI tumour cell line growth inhibition, 48 h
NCI-H23 = tested on: NCI-H23
RXF 393 = tested on: RXF 393
OVCAR-5 = tested on: OVCAR-5
HL-60 = tested on: HL-60
A549 = tested on: A549
KM12 = tested on: KM12
Hs-578T = tested on: Hs-578T
M14 = tested on: M14
OVCAR-4 = tested on: OVCAR-4
SF-268 = tested on: SF-268
A498 = tested on: A498
NCI/ADR-RES = tested on: NCI/ADR-RES
MCF7 = tested on: MCF7
UO-31 = tested on: UO-31
IGROV-1 = tested on: IGROV-1
OVCAR-8 = tested on: OVCAR-8
SK-OV-3 = tested on: SK-OV-3
T47D = tested on: T47D
M19-MEL = tested on: M19-MEL
NCI-H226 = tested on: NCI-H226

Measured: GI50

O=C(NC(=O)c1c(F)cccc1F)Nc1cccc(Oc2ncc(Cl)cn2)c1
inactive: NCI-H23 > 100 µM | RXF 393 38.5 µM | OVCAR-5 > 100 µM | HL-60 3.51 µM | A549 > 39.9 µM | KM12 1.4 µM | Hs-578T 35.2 µM | M14 > 51.2 µM | OVCAR-4 > 69 µM | SF-268 36.5 µM | A498 > 76.6 µM | NCI/ADR-RES > 23.3 µM | MCF7 > 100 µM | UO-31 > 100 µM | IGROV-1 33.4 µM | OVCAR-8 43 µM | SK-OV-3 19.3 µM | T47D > 35.2 µM | M19-MEL > 100 µM | NCI-H226 62.7 µM

Nc1ccc(Sc2c3ccccc3nc3ccccc23)cc1
inactive: NCI-H23 17.7 µM | RXF 393 18.7 µM | OVCAR-5 21.8 µM | HL-60 2.96 µM | A549 33.3 µM | KM12 18.6 µM | Hs-578T 25.6 µM | M14 15.7 µM | OVCAR-4 12.1 µM | SF-268 18.5 µM | A498 68.5 µM | NCI/ADR-RES 7.73 µM | MCF7 12.4 µM | UO-31 17.5 µM | IGROV-1 17.7 µM | OVCAR-8 13.8 µM | SK-OV-3 22.3 µM | T47D 2.06 µM | M19-MEL 20.5 µM | NCI-H226 18.7 µM

O=C(O)/C(Cl)=C(/Cl)C(=O)Nc1cccc(Cl)c1
inactive: NCI-H23 15.9 µM | RXF 393 16.4 µM | OVCAR-5 19.7 µM | HL-60 8.91 µM | A549 48.1 µM | KM12 20.8 µM | Hs-578T 24.8 µM | M14 18.6 µM | OVCAR-4 18.2 µM | SF-268 22.4 µM | A498 > 64.1 µM | MCF7 24.8 µM | UO-31 18.5 µM | IGROV-1 18.8 µM | OVCAR-8 18.7 µM | SK-OV-3 15.7 µM | T47D 22 µM | M19-MEL 15.6 µM | NCI-H226 24.8 µM

CCN(CC)CCOC(=O)Cc1cccc2c(=O)cc(-c3ccccc3)oc12
inactive: NCI-H23 45.8 µM | RXF 393 41.5 µM | OVCAR-5 57.9 µM | HL-60 36.3 µM | A549 6.62 µM | KM12 34.8 µM | Hs-578T 28.3 µM | M14 41.7 µM | OVCAR-4 35.9 µM | SF-268 47.2 µM | A498 54.3 µM | NCI/ADR-RES 50 µM | MCF7 54.1 µM | UO-31 5.79 µM | IGROV-1 44.6 µM | OVCAR-8 51.4 µM | SK-OV-3 48.5 µM | T47D 30.4 µM | M19-MEL 84.5 µM | NCI-H226 38.8 µM
